Patent US20070265212A1, “Drug Transport and Delivery System” (LUZERN ACQUISITION CORP., C/O STRELA DEVELOPMENT, priority 2002, published 2007)

Key:
[1] = system: red blood cells; assay: Metabolite formation in the presence of red blood cells (HPLC, mass spectrometry); assay type: in vitro ADME; details: identified by HPLC and mass spectrometry
Procedure: (§1) These metabolites were identified by HPLC and mass spectrometry to be m-L-Sarcolysin, prolyl-m-L-sarcolysin, fluoro-phenylalanine and prolyl-m-sarcolysyl-p-fluoro-phenylalanin.
(§2) According to hitherto is available results this metabolite is most probably ADM linked to one Phe moiety. This was done with 1 ml of blood containing 20 μg/ml of the ADM derivative as well as 5×10^9 RBC compared to only 5×10^6 melanoma cells.

[2] = system: human melanoma cells; assay: Metabolite formation in the presence of human melanoma cells (HPLC, mass spectrometry); assay type: in vitro ADME; details: identified by HPLC and mass spectrometry
Procedure: as §1, §2

Substance: Prolyl-m-sarcolysyl-p-fluoro-phenylalanin [PSF]
- metabolites in presence of red blood cells [1]: one major metabolite, namely m-L-sarcolysin
- metabolites in the presence of cancer cells [2]: 4
